Source: US20240262819A1, “NOVEL COMPOUNDS HAVING INHIBITORY ACTIVITY AGAINST GLUCOSYLCERAMIDE SYNTHASE OR PHARMACEUTICALLY ACCEPTABLE SALT THEREOF, PROCESSES FOR PREPARING THE SAME, AND PHARMACEUTICAL COMPOSITIONS COMPRISING THE SAME” (YUHAN CORPORATION, priority 2021, published 2024)
Where two headings read alike, the source gives them in different places.

Key:
[1] = test system: GM1 production in Jurkat cells; experiment: cells; assay type: cell-based
[2] = biological target: glucosylceramide synthase (GCS) (Homo sapiens (Human), UniProt Q16739); experiment: Evaluation of inhibitory activities against GCS (A549 cell lysate, NBD C6-ceramide, HPLC); assay type: biochemical
How it was run: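 GCS activity in A549 cell lysate (50 mM HEPES, pH 7.3) with NBD C6-ceramide, reacted 90 min at 37 °C. Lipids were chloroform/methanol-extracted and separated by normal-phase HPLC with fluorescence detection (ex 470/em 530 nm). GlcCer fraction of peak area was normalized between DMSO and ibiglustat, and IC50 obtained by curve fitting.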

[3] = % GCS activity, A549 cell lysate, 37° C. for 90 minutes, read-out: IC50

Chain of glucosylceramide synthase (GCS) (Q16739 whole entry): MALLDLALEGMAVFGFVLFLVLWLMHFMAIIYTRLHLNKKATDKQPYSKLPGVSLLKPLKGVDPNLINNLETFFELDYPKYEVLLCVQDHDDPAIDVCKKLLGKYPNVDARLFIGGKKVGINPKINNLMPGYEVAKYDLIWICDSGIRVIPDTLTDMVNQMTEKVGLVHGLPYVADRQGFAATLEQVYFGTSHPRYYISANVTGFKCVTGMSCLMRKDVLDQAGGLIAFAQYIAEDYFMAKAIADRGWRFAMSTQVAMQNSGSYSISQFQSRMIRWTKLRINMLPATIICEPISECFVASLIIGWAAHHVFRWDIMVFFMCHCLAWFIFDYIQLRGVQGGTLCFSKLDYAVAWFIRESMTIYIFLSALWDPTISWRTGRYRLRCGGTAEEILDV

CCCOc1ccc(-c2cc3c(cc2OCC)[C@H](NC(=O)O[C@@H]2CN4CCC2CC4)C(C)(C)C3)cc1 [Example 133, (S)-quinuclidin-3-yl((R)-6-ethoxy-2,2-dimethyl-5-(4-propoxyphenyl)-2,3-dihydro-1H-inden-1-yl) carbamate]
IC50 ([1]; read-out: IC50): 2.63 nM | IC50 [2, 3]: 0.5 nM

CCOc1cc2c(cc1-c1ccc(OC(C)C)cc1)CC(C)(C)[C@H]2NC(=O)O[C@@H]1CN2CCC1CC2 [Example 134, (S)-quinuclidin-3-yl((R)-6-ethoxy-5-(4-isopropoxyphenyl)-2,2-dimethyl-2,3-dihydro-1H-inden-1-yl)carbamate]
IC50 ([1]; Homo sapiens, Jurkat, 72 h): 3.8 nM | IC50 [2]: 0.71 nM

CCCCOc1ccc(-c2cc3c(cc2OCC)[C@H](NC(=O)O[C@@H]2CN4CCC2CC4)C(C)(C)C3)cc1 [Example 135, (S)-quinuclidin-3-yl((R)-5-(4-butoxyphenyl)-6-ethoxy-2,2-dimethyl-2,3-dihydro-1H-inden-1-yl)carbamate]
IC50 ([1]; Homo sapiens, Jurkat, 72 h): 1.46 nM | IC50 [2]: 0.51 nM

CCOc1cc2c(cc1-c1ccc(OCC(C)C)cc1)CC(C)(C)[C@H]2NC(=O)O[C@@H]1CN2CCC1CC2 [Example 136, (S)-quinuclidin-3-yl((R)-6-ethoxy-5-(4-isobutoxyphenyl)-2,2-dimethyl-2,3-dihydro-1H-inden-1-yl)carbamate]
IC50 ([1]; Homo sapiens, Jurkat, 72 h): 0.87 nM | IC50 [2]: 0.41 nM

CCOc1cc2c(cc1-c1ccc(OC(C)C)c(Cl)c1)CC(C)(C)[C@H]2NC(=O)O[C@@H]1CN2CCC1CC2 [Example 137, (S)-quinuclidin-3-yl((R)-5-(3-chloro-4-isopropoxyphenyl)-6-ethoxy-2,2-dimethyl-2,3-dihydro-1H-inden-1-yl)carbamate]
IC50 ([1]; Homo sapiens, Jurkat, 72 h): 12.8 nM | IC50 [2]: 3.04 nM

CCOc1cc2c(cc1-c1ccc(OC)cc1F)CC(C)(C)[C@H]2NC(=O)O[C@@H]1CN2CCC1CC2 [Example 138, (S)-quinuclidin-3-yl((R)-6-ethoxy-5-(2-fluoro-4-methoxyphenyl)-2,2-dimethyl-2,3-dihydro-1H-inden-1-yl)carbamate]
IC50 ([1]; Homo sapiens, Jurkat, 72 h): 28 nM | IC50 [2]: 1.87 nM

CCc1ccc(-c2ccc3c(c2)CCC(C)(C)[C@H]3NC(=O)O[C@@H]2CN3CCC2CC3)cc1 [Example 139, (S)-quinuclidin-3-yl((R)-6-(4-ethylphenyl)-2,2-dimethyl-1,2,3,4-tetrahydronaphthalen-1-yl)carbamate]
IC50 ([1]; Homo sapiens, Jurkat, 72 h): 3.01 nM | IC50 [2]: 0.26 nM

CCCc1ccc(-c2ccc3c(c2)CCC(C)(C)[C@H]3NC(=O)O[C@@H]2CN3CCC2CC3)cc1 [Example 140, (S)-quinuclidin-3-yl((R)-2,2-dimethyl-6-(4-propylphenyl)-1,2,3,4-tetrahydronaphthalen-1-yl)carbamate]
IC50 ([1]; Homo sapiens, Jurkat, 72 h): 2.5 nM | IC50 [2]: 0.29 nM

CC(C)c1ccc(-c2ccc3c(c2)CCC(C)(C)[C@H]3NC(=O)O[C@@H]2CN3CCC2CC3)cc1 [Example 141, (S)-quinuclidin-3-yl((R)-6-(4-isopropylphenyl)-2,2-dimethyl-1,2,3,4-tetrahydronaphthalen-1-yl)carbamate]
IC50 ([1]; Homo sapiens, Jurkat, 72 h): 2.77 nM | IC50 [2]: 0.43 nM

CCCCc1ccc(-c2ccc3c(c2)CCC(C)(C)[C@H]3NC(=O)O[C@@H]2CN3CCC2CC3)cc1 [Example 142, (S)-quinuclidin-3-yl((R)-6-(4-butylphenyl)-2,2-dimethyl-1,2,3,4-tetrahydronaphthalen-1-yl) carbamate]
IC50 ([1]; read-out: IC50): 1.4 nM | IC50 [2, 3]: 0.23 nM

CCOc1ccc(-c2ccc3c(c2)CCC(C)(C)[C@H]3NC(=O)O[C@@H]2CN3CCC2CC3)cc1 [Example 143, (S)-quinuclidin-3-yl((R)-6-(4-ethoxyphenyl)-2,2-dimethyl-1,2,3,4-tetrahydronaphthalen-1-yl) carbamate]
IC50 ([1]; read-out: IC50): 4.2 nM | IC50 [2, 3]: 0.33 nM

CCCOc1ccc(-c2ccc3c(c2)CCC(C)(C)[C@H]3NC(=O)O[C@@H]2CN3CCC2CC3)cc1 [Example 144, (S)-quinuclidin-3-yl((R)-2,2-dimethyl-6-(4-propoxyphenyl)-1,2,3,4-tetrahydronaphthalen-1-yl) carbamate]
IC50 ([1]; read-out: IC50): 2.3 nM | IC50 [2, 3]: 0.42 nM
